The values that follow come from ChEMBL document CHEMBL1132763, “8-Aminocyclazocine analogues: synthesis and structure-activity relationships” (Bioorg Med Chem Lett, 2000).

Molecules are shown by their SMILES.

The target in assay [1] is Mu-type opioid receptor (Cavia porcellus, UniProt P97266). The experiment in a line: Binding affinity was determined against Opioid receptor mu 1 obtained from guinea pig brain membranes using [3H]DAMGO as radioligand.
Assay [2] concerns the target Kappa-type opioid receptor (Cavia porcellus, UniProt P41144). In words: Binding affinity was determined against Opioid receptor kappa 1 obtained from guinea pig brain membranes using [3H]U-69593 as radioligand.
A short description of assay [3]: Binding affinity was determined against Opioid receptor delta 1 obtained from guinea pig brain membranes using [3H]naltrindole as radioligand.

Sequence of Kappa-type opioid receptor (P41144 whole entry): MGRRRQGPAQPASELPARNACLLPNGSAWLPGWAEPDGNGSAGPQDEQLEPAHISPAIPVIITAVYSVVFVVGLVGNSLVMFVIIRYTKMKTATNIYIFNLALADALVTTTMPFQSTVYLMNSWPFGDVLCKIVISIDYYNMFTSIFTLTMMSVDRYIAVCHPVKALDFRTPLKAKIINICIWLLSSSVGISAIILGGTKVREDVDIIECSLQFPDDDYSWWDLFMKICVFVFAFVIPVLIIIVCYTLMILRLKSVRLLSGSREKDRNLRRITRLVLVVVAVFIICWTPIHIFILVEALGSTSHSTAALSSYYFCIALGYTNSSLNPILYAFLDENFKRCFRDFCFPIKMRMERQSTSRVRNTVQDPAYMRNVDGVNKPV
Sequence of Mu-type opioid receptor (P97266 whole entry): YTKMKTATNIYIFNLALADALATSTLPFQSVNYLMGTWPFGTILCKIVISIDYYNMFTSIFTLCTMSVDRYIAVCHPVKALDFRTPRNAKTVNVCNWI

For the molecule `C[C@@H]1[C@@H]2Cc3ccc(O)cc3[C@@]1(C)CN2CC1CC1`, the Ki in assay [1] is 360 nM; in assay [2], 76 nM.

In turn, `CNc1ccc2c(c1)[C@@]1(C)CCN(CC3CC3)C(C2)[C@@H]1C` (mixture of isomers) displayed an inhibitory constant (Ki) in assay [2] of 8.5 nM.

`C[C@H]1C2Cc3ccc(N(C)Cc4ccccc4)cc3[C@@]1(C)CCN2CC1CC1` (mixture of isomers): the inhibition constant Ki in assay [1] is 56 nM; in assay [2], 44 nM.

Regarding `C[C@H]1C2Cc3ccc(N(C)C)cc3[C@@]1(C)CCN2CC1CC1` (mixture of isomers), the results for the Ki in assay [1] and in assay [2] were 82 nM and 33 nM, respectively.

`C[C@H]1C2Cc3ccc(NCc4ccccc4)cc3[C@@]1(C)CCN2CC1CC1` (mixture of isomers): the Ki in assay [1] is 1.5 nM; in assay [2] it was 4.7 nM.

Consider `C[C@H]1C2Cc3ccc(N)cc3[C@@]1(C)CCN2CC1CC1` (mixture of isomers), for which the results for the Ki in assay [1] and in assay [2] were 9.5 nM and 4.1 nM, respectively.

`C[C@H]1C2Cc3ccc(N4CCCCC4)cc3[C@@]1(C)CCN2CC1CC1` (mixture of isomers): the inhibition constant Ki stood at 950 nM in assay [1] and 300 nM in assay [2].

With `C[C@H]1C2Cc3ccc(N4CCOCC4)cc3[C@@]1(C)CCN2CC1CC1` (mixture of isomers), the inhibitory constant (Ki) in assay [1] worked out at 650 nM; in assay [2], 560 nM.

Consider `C[C@H]1C2Cc3ccc(N4CCN(C)CC4)cc3[C@@]1(C)CCN2CC1CC1` (mixture of isomers), for which the Ki stood at 21 nM in assay [1] and 8.8 nM in assay [2].

`CC(C)Nc1ccc2c(c1)[C@@]1(C)CCN(CC3CC3)C(C2)[C@@H]1C` (mixture of isomers): the figures for the inhibitory constant (Ki) in assay [1] and in assay [2] were 240 nM and 78 nM, respectively.

Turning to `CCNc1ccc2c(c1)[C@@]1(C)CCN(CC3CC3)C(C2)[C@@H]1C` (mixture of isomers), the Ki in assay [1] turned out to be 5.1 nM; in assay [2], 3.3 nM.

`C[C@H]1C2Cc3ccc(N4CCCC4)cc3[C@@]1(C)CCN2CC1CC1` (mixture of isomers): in assay [2], the affinity, expressed as Ki, was 410 nM.

As to `C[C@H]1C2Cc3ccc(NCCc4ccccc4)cc3[C@@]1(C)CCN2CC1CC1` (mixture of isomers), the inhibition constant (Ki) in assay [1] amounted to 9 nM; in assay [2], 11 nM.

For `C[C@H]1[C@H]2Cc3ccc(Nc4ccccc4)cc3[C@@]1(C)CCN2CC1CC1` (racemic), the results for the Ki in assay [1] and in assay [2] were 1.3 nM and 0.83 nM, respectively.

In turn, `C[C@H]1[C@H]2Cc3ccc(O)cc3[C@@]1(C)CCN2CC1CC1` (racemic) gave an inhibitory constant (Ki) in assay [2] of 0.18 nM.

As to `C[C@H]1C2Cc3ccc(N)cc3[C@@]1(C)CCN2CC1CC1` (stereo in doubt; (+)-6), the figures for the inhibition constant (Ki) in assay [1] and in assay [2] were 780 nM and 506 nM, respectively.

With `C[C@H]1[C@H]2Cc3ccc(Nc4ccccc4)cc3[C@@]1(C)CCN2CC1CC1` (stereo in doubt; (+)-12), the Ki came out at 46 nM in assay [1] and 27 nM in assay [2].

As to `C[C@H]1C2Cc3ccc(N)cc3[C@@]1(C)CCN2CC1CC1` (stereo in doubt; (-)-5), the figures for the Ki in assay [1] and in assay [2] were 1.8 nM and 1.2 nM, respectively.

For `C[C@H]1[C@H]2Cc3ccc(Nc4ccccc4)cc3[C@@]1(C)CCN2CC1CC1` (stereo in doubt; (-)-11), the figures for the Ki in assay [1] and in assay [2] were 1.1 nM and 0.54 nM, respectively.

`C[C@H]1C2Cc3ccc(NCc4ccccc4)cc3[C@@]1(C)CCN2CC1CC1` (stereo in doubt; (-)-14): the Ki in assay [1] amounted to 0.67 nM; in assay [2] it was 2.1 nM.

Regarding `C[C@H]1[C@H]2Cc3ccc(O)cc3[C@]1(C)CCN2CC1CC1` [CYCLAZOCINE], the affinity in assay [3] corresponds to a Ki of 0.58 nM.
